Data: publication PMC9820082, “Synthesis of 9-Hydroxy-1H-Benzo[f]chromene Derivatives with Effective Cytotoxic Activity on MCF7/ADR, P-Glycoprotein Inhibitors, Cell Cycle Arrest and Apoptosis Effects” (International Journal of Molecular Sciences, 2022)

Legend:
[1] = tested on: Adriamycin (ADR)-resistant human breast cancer cells (MCF-7/ADR); experiment: Cytotoxicity against MCF-7/ADR cells; format: cell-based; conditions: 24 h exposure, mean ± standard error
Method: (§1) Three human cancer cell lines, PC-3 (human prostate adenocarcinoma, metastatic), […], were used to test the anti-proliferative activity of β-enaminonitrile (4a–p) using the MTT colorimetric assay at concentrations ranging from 0–100 μM. The representative active cytotoxic substances 4a, 4c, 4d, 4e, 4g, 4i, 4k and 4o were also tested against two normal cell lines, human fetal lung (HFL-1) and human diploid fibroblasts (WI-38), as well as Adriamycin (ADR)-resistant human breast cancer cells (MCF-7/ADR). The reference cytotoxic agents, Vinblastine and Doxorubicin, were used in the tests.
(§2) The tumor cell lines MCF-7, HepG-2, PC-3 MCF-7/ADR, HFL-1 and (WI-38) were obtained from the American Type Culture Collection (ATCC, Rockville, MD, USA). The cells were grown on RPMI-1640 medium supplemented with 10% inactivated fetal calf serum and 50 µg/mL gentamycin. The cells were maintained at 37 ^οC in a humidified atmosphere with 5% CO2 and were subcultured two to three times a week.
(§3) The cytotoxic activity was appraised using the 3-(4,5-dimethylthiazol-2-yl)-2,5-diphenyltetrazolium bromide (MTT) colorimetric assay for the antitumor cell lines, as reported previously, and the ELISA assay for MCF-7/ADR [69].

[2] = tested on: PC-3 (human prostate adenocarcinoma, metastatic); experiment: MTT colorimetric cytotoxicity assay, PC-3; format: cell-based; conditions: for IC50: Homo sapiens, MTT, 24 h incubation, mean ± standard error; for times more active than Doxorubicin / times more active than Vinblastine: PC-3 cells, ratio of IC50 values
Method: as §1, §2, §3

P-glycoprotein (P-gp) = experiment: P-gp content in MCF-7/ADR cell lysate (human P-gp ELISA kit); format: cell-based; conditions: for inhibitory effect on the P-gp level: MCF-7/ADR, in words; for inhibition at 48 h, 12.5 µM / inhibition at 48 h, 25 µM / inhibition at 48 h, 50 µM / inhibition at 48 h, 100 µM / IC50 at 48 h: human, MCF-7/ADR cells (cell lysate), MCF-7/ADR cell lysate, ELISA; for inhibition at 48 h, 12.5 µM: Conc. 12.5 (µM); for inhibition at 48 h, 25 µM: Conc. 25 (µM); for inhibition at 48 h, 50 µM: Conc. 50 (µM); for inhibition at 48 h, 100 µM: Conc. 100 (µM)
Method: P-glycoprotein (P-gp)-mediated multidrug resistance (MDR) is a phenomenon in which cells become resistant to structurally and mechanistically unrelated drugs, resulting in low intracellular drug concentrations. It is one of the noteworthy problems in malignant tumor clinical therapeutics.
The content of P-gp in the MCF-7/ADR cell lysates after incubation with varying conc. (12.5–100 µM) of tested compounds 4a, 4c, 4d, 4e, 4g and 4i following exposure for 48 hr was determined using a commercial human P-gp (Permeability Glycoprotein) ELISA Kit (MBS2506188, MyBioSource Inc., San Diego, CA, USA). Absorption was recorded at 450 nm with a Spectramax Gemini fluorescence microplate reader (Molecular Devices, Sunnyvale, CA, USA).

[3] = tested on: human diploid fibroblasts (WI-38); experiment: Cytotoxicity against normal cell line WI-38; format: cell-based; conditions: 24 h incubation, mean ± standard error
Method: as §1, §2, §3

[4] = tested on: HeLa (cervical cancer cell line); experiment: MTT colorimetric cytotoxicity assay, HeLa; format: cell-based, human; conditions: Homo sapiens, HeLa, 24 h, 24 h incubation, mean ± standard error
Method: as §1, §3

[5] = tested on: SKOV-3 (ovarian cancer cell line); experiment: MTT colorimetric cytotoxicity assay, SKOV-3; format: cell-based, human; conditions: 24 h incubation, mean ± standard error
Method: as §1, §3

human fetal lung (HFL-1) = experiment: Cytotoxicity against normal cell line HFL-1; format: cell-based; conditions: 24 h incubation, mean ± standard error
Method: as §1, §2, §3

[6] = Homo sapiens, NCI/ADR-RES, 24 h

Row | Compound | IC50 [1, 6] [µM] | IC50 [2] [µM] | inhibitory effect on the P-gp level (P-glycoprotein (P-gp)) | inhibition at 48 h, 12.5 µM (P-glycoprotein (P-gp)) [%] | inhibition at 48 h, 25 µM (P-glycoprotein (P-gp)) [%] | inhibition at 48 h, 50 µM (P-glycoprotein (P-gp)) [%] | inhibition at 48 h, 100 µM (P-glycoprotein (P-gp)) [%] | IC50 at 48 h (P-glycoprotein (P-gp)) [µM] | IC50 [3] [µM] | IC50 [4] [µM] | IC50 ([5]; Homo sapiens, SK-OV-3, 24 h) [µM] | IC50 (human fetal lung (HFL-1); Homo sapiens, HFL1, 24 h) [µM] | IC50 ([3]; Homo sapiens, WI-38, 24 h) [µM] | times more active than Doxorubicin [2] [times] | times more active than Vinblastine [2] [times] | IC50 [1] [µM] | IC50 [5] [µM] | IC50 (human fetal lung (HFL-1)) [µM]
1 | N#CC1=C(N)Oc2ccc3ccc(O)cc3c2C1c1ccc(Cl)cc1Cl (stereo not shown) [4d, 3-Amino-1-(2,4-Dichlorophenyl)-9-Hydroxy-1H-Benzo[f]chromene-2-Carbonitrile] | 10.4 ± 0.3 | 2 ± 0.7 | almost negligible inhibitory effect | 10 | 25 | 43 | 69 | 65.9 | 39.1 ± 0.2 | 1.8 ± 0.1 | 1.5 ± 0.1 | 20.1 ± 0.4 | – | – | – | – | – | –
2 | N#CC1=C(N)Oc2ccc3ccc(O)cc3c2C1c1ccc(Cl)c(Cl)c1 (stereo not shown) [4g, 3-Amino-1-(3,4-Dichlorophenyl)-9-Hydroxy-1H-Benzo[f]chromene-2-Carbonitrile] | 11.5 ± 0.4 | 2.4 ± 0.1 | – | 23 | 34 | 66 | 83 | 34.6 | – | 2.2 ± 0.2 | 0.9 ± 0.3 | 27.4 ± 0.1 | 26.3 ± 0.2 | – | – | – | – | –
3 | N#CC1=C(N)Oc2ccc3ccc(O)cc3c2C1c1ccc(F)cc1F (stereo not shown) [4a, 3-Amino-1-(2,4-Difluorophenyl)-9-Hydroxy-1H-Benzo[f]chromene-2-Carbonitrile] | 10.8 ± 0.4 | 1.1 ± 0.4 | strong inhibitory effect | 25 | 37 | 68 | 80 | 32 | 34.3 ± 1.2 | 2.8 ± 0.3 | 1.4 ± 0.2 | 26.5 ± 0.3 | 19.1 to 30.1 | 1.2 | 6.8 | – | – | –
4 | N#CC1=C(N)Oc2ccc3ccc(O)cc3c2C1c1cccc(Cl)c1Cl (stereo not shown) [4c, 3-Amino-1-(2,3-Dichlorophenyl)-9-Hydroxy-1H-Benzo[f]chromene-2-Carbonitrile] | 8.6 to 11.5 | 2.9 ± 0.7 | strong inhibitory effect | 26 | 37 | 71 | 88 | 30.8 | – | 1.7 ± 0.1 | – | 22.1 ± 0.2 | 29.4 ± 0.1 | – | – | 12.4 ± 0.1 | 4 ± 0.6 | –
5 | N#CC1=C(N)Oc2ccc3ccc(O)cc3c2C1c1cc(Br)cc(Br)c1 (stereo not shown) [4i, 3-Amino-1-(3,5-Dibromophenyl)-9-Hydroxy-1H-Benzo[f]chromene-2-Carbonitrile] | 8.6 ± 0.7 | 0.8 ± 0.1 | almost negligible inhibitory effect | 15 | 30 | 48 | 76 | 53.6 | – | 3.4 ± 0.6 | 1.2 | 19.1 to 30.1 | 29.2 ± 1.2 | 1.6 | 9.4 | – | 1.1 ± 0.1 | 38.1 ± 0.4
6 | N#CC1=C(N)Oc2ccc3ccc(O)cc3c2C1c1cc(Cl)ccc1Cl (stereo not shown) [4e, 3-Amino-1-(2,5-Dichlorophenyl)-9-Hydroxy-1H-Benzo[f]chromene-2-Carbonitrile] | 10 ± 0.3 | 2.1 ± 0.5 | strong inhibitory effect | 36 | 54 | 80 | 91 | 18.7 | – | 2.7 ± 0.6 | 1.1 ± 0.4 | 24.1 ± 0.3 | 25.4 ± 1.1 | – | – | – | – | –
